Test results taken from patent publication US10844077B2, “Thiazolyl-containing compounds for treating proliferative diseases” (Dana-Farber Cancer Institute, Inc., priority 2014, dated 2020).
Several values for one entry are separate records, joined by “and”; a condition that tells them apart may be missing. Identical values can stand only once.

Columns and labels:
kinases in BCWM.1 cells [1] = target: kinases in BCWM.1 cells (Homo sapiens, UniProt P45985); format: cell-based; conditions: MAP2K4; Lys2; 1 μM; GF
Protocol: (§1) The cells were harvested and lysed. […] Bound kinases were identified and quantitated by ACTIVX as described in Patricelli et al., Biochemistry, 2007, 46(2): 350-358. The compounds were tested in duplicates against duplicate or quadruplicate control samples.

kinases in BCWM.1 cells [2] = target: kinases in BCWM.1 cells (Homo sapiens, UniProt O94804); format: cell-based; conditions: LOK; Lys2; 1 μM; GF
Protocol: as §1

kinases in BCWM.1 cells [3] = target: kinases in BCWM.1 cells (Homo sapiens, UniProt O14976); format: cell-based; conditions: GAK; Lys2; 1 μM; GF
Protocol: as §1

kinases in BCWM.1 cells [4] = target: kinases in BCWM.1 cells (Homo sapiens, UniProt O94806); format: cell-based; conditions: PKD3; Lys1; 1 μM, 90 min; GF
Protocol: as §1

kinases in BCWM.1 cells [5] = target: kinases in BCWM.1 cells (Homo sapiens, UniProt P78356); assay: KINATIV assay of compounds I-3 and I-9, lysate directly labeled with ATP-biotin probe (no GF); format: cell-based; conditions: PIP4K2B; ATP; 1 μM, 90 min; no GF
Protocol: as §1

kinases in BCWM.1 cells [6] = target: kinases in BCWM.1 cells (Homo sapiens, UniProt Q9Y2K2); assay: as above; format: cell-based; conditions: QSK; Lys2; 1 μM, 90 min; no GF
Protocol: as §1

kinases in BCWM.1 cells [7] = target: kinases in BCWM.1 cells (Homo sapiens, UniProt Q16513); assay: as above; format: cell-based; conditions: PKN2; Lys2; 1 μM, 90 min; no GF
Protocol: as §1

SLK = SLK (Homo sapiens (Human), UniProt Q9H2G2); assay: KINATIV assay; format: cell-based; conditions: 1 μM, 90 minutes, BCWM.1 cells
How it was run: (§2)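 Quantitation by ACTIVX of probe-bound kinases from cell lysates labeled directly with ATP-biotin; compounds run in duplicate, controls in duplicate or quadruplicate.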

BTK = BTK (Homo sapiens (Human), UniProt Q06187); assay: BTK inhibitory activity; format: biochemical
NDR1 = NDR1 (Homo sapiens (Human), UniProt Q15208); assay: KINATIV assay; format: cell-based; conditions: 1 μM, 90 minutes, BCWM.1 cells
How it was run: as §2

IKKb = IKKb (Homo sapiens (Human), UniProt O14920); assay: KINATIV assay; format: cell-based; conditions: 1 μM, 90 minutes, BCWM.1 cells
How it was run: as §2

DNAPK = DNAPK (Homo sapiens (Human), UniProt P78527); assay: KINATIV assay; format: cell-based; conditions: 1 μM, 90 minutes, BCWM.1 cells
How it was run: as §2

JAK3 domain2 = JAK3 domain2 (Homo sapiens (Human), UniProt P52333); assay: KINATIV assay; format: cell-based; conditions: 1 μM, 90 minutes, BCWM.1 cells
How it was run: as §2

CDK7 = CDK7 (Homo sapiens (Human), UniProt P50613); assay: KINATIV assay; format: cell-based; conditions: 1 μM, 90 minutes, BCWM.1 cells
How it was run: as §2

kinases in BCWM.1 cells [8] = target: kinases in BCWM.1 cells (Homo sapiens, UniProt P78368); assay: KINATIV assay of compounds I-3 and I-9, lysate directly labeled with ATP-biotin probe (no GF); format: cell-based; conditions: CK1g2; Lys2; 1 μM; no GF
Protocol: as §1

kinases in BCWM.1 cells [9] = target: kinases in BCWM.1 cells (Homo sapiens, UniProt P54762); assay: as above; format: cell-based; conditions: EphB1; Activation Loop; 1 μM; no GF
Protocol: as §1

kinases in BCWM.1 cells [10] = target: kinases in BCWM.1 cells (Homo sapiens, UniProt Q9Y6E0); assay: as above; format: cell-based; conditions: MST3; Lys2; 1 μM; no GF
Protocol: as §1

kinases in BCWM.1 cells [11] = target: kinases in BCWM.1 cells (Homo sapiens, UniProt Q00534); assay: as above; format: cell-based; conditions: CDK6; Lys2; 1 μM; no GF
Protocol: as §1

kinases in BCWM.1 cells [12] = target: kinases in BCWM.1 cells (Homo sapiens, UniProt Q9Y616); assay: as above; format: cell-based; conditions: IRAK3; Lys1; 1 μM; no GF
Protocol: as §1

kinases in BCWM.1 cells [13] = target: kinases in BCWM.1 cells (Homo sapiens, UniProt P49840); assay: as above; format: cell-based; conditions: GSK3A; Lys2; 1 μM; no GF
Protocol: as §1

kinases in BCWM.1 cells [14] = target: kinases in BCWM.1 cells (Homo sapiens, UniProt O14757); assay: as above; format: cell-based; conditions: CHK1; Lys2; 1 μM; no GF
Protocol: as §1

kinases in BCWM.1 cells [15] = target: kinases in BCWM.1 cells (Homo sapiens, UniProt P00533); assay: as above; format: cell-based; conditions: EGFR; Lys1; 1 μM; no GF
Protocol: as §1

kinases in BCWM.1 cells [16] = target: kinases in BCWM.1 cells (Homo sapiens, UniProt O75582); assay: as above; format: cell-based; conditions: MSK1 domain1; Lys2; 1 μM; no GF
Protocol: as §1

kinases in BCWM.1 cells [17] = target: kinases in BCWM.1 cells (Homo sapiens, UniProt P06239); assay: as above; format: cell-based; conditions: LCK; Activation Loop; 1 μM; no GF
Protocol: as §1

kinases in BCWM.1 cells [18] = target: kinases in BCWM.1 cells (Homo sapiens, UniProt Q96GX5); assay: as above; format: cell-based; conditions: MASTL, 1 μM, no GF
Protocol: as §1

kinases in BCWM.1 cells [19] = target: kinases in BCWM.1 cells (Homo sapiens, UniProt P42685); assay: as above; format: cell-based; conditions: FRK; Activation Loop; 1 μM; no GF
Protocol: as §1

kinases in BCWM.1 cells [20] = target: kinases in BCWM.1 cells (Homo sapiens, UniProt Q96RR4); assay: as above; format: cell-based; conditions: CaMKK2; Lys2; 1 μM; no GF
Protocol: as §1

kinases in BCWM.1 cells [21] = target: kinases in BCWM.1 cells (Homo sapiens, UniProt P24941); assay: as above; format: cell-based; conditions: CDK2; Lys2; 1 μM; no GF
Protocol: as §1

kinases in BCWM.1 cells [22] = target: kinases in BCWM.1 cells (Homo sapiens, UniProt O14965); assay: as above; format: cell-based
Protocol: as §1

p38a = p38a (Homo sapiens (Human), UniProt Q16539); assay: KINATIV assay; format: cell-based; conditions: 1 μM, 90 minutes, BCWM.1 cells
How it was run: as §2

MAP2K1, MAP2K2 = assay: KINATIV assay; format: cell-based; conditions: 1 μM, 90 minutes, BCWM.1 cells
How it was run: as §2

Chain of kinases in BCWM.1 cells (Homo sapiens, UniProt P06239) (P06239 2-509 limits assumed): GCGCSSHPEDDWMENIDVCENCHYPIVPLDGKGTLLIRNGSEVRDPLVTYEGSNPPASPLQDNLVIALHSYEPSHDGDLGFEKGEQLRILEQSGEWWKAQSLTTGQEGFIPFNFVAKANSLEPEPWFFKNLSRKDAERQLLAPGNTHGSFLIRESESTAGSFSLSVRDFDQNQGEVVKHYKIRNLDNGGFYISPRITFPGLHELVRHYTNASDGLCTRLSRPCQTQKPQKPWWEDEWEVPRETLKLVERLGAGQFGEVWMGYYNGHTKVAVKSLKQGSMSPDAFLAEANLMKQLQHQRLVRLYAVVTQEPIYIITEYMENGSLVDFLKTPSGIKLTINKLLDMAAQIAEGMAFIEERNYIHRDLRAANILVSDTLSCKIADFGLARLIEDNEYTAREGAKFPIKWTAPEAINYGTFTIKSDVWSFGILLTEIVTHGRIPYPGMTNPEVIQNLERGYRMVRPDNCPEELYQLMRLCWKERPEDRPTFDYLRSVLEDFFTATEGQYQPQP
Chain of kinases in BCWM.1 cells (Homo sapiens, UniProt P00533) (P00533 25-1210 limits assumed): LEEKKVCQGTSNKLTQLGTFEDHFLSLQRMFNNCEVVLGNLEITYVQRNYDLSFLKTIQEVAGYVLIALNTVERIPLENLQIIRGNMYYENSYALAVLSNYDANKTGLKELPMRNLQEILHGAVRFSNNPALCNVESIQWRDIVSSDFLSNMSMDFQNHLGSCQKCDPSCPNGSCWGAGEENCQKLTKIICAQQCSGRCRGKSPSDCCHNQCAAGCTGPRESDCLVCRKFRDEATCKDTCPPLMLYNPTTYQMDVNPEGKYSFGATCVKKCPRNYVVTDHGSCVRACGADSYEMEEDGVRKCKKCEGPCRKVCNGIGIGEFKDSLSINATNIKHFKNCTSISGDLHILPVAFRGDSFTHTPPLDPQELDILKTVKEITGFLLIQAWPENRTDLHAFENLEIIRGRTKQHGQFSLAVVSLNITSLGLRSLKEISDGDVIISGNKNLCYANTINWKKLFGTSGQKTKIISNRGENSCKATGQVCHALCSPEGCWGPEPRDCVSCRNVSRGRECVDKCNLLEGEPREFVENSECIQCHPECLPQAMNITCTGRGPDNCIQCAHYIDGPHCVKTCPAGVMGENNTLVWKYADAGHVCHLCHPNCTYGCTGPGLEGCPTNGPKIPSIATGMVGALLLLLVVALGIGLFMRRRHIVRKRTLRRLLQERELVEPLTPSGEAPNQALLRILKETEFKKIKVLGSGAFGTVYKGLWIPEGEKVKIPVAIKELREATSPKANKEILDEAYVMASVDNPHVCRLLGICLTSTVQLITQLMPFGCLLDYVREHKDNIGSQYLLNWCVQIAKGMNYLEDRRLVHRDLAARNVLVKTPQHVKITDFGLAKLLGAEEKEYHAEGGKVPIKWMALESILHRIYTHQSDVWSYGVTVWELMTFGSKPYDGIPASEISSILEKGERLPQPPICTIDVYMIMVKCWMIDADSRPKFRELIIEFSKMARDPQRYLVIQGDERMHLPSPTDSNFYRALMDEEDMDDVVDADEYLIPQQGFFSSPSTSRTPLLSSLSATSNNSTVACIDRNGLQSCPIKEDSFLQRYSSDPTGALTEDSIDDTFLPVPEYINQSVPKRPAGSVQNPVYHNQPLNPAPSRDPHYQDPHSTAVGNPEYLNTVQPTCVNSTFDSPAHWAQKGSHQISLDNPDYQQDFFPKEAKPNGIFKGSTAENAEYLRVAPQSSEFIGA
Chain of CDK7 (P50613 2-346): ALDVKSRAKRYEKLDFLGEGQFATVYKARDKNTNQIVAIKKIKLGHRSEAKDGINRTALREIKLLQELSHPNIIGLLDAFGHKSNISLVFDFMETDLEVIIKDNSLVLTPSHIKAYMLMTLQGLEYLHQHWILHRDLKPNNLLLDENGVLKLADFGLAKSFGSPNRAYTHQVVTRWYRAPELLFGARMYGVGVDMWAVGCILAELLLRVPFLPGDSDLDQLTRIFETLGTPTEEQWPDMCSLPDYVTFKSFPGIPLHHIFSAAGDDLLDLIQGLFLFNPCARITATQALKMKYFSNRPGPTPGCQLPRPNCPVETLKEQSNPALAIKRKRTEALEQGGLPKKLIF
Chain of CDK7 (P51946 whole entry partner): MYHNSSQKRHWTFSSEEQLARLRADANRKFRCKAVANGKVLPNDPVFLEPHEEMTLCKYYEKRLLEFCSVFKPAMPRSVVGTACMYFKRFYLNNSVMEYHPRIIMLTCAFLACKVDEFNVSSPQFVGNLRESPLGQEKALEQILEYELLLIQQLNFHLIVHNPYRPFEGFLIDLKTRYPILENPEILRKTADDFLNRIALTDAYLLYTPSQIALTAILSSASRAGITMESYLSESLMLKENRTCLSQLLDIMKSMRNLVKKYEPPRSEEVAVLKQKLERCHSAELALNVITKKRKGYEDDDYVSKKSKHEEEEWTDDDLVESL
Chain of CDK7 (P51948 whole entry partner): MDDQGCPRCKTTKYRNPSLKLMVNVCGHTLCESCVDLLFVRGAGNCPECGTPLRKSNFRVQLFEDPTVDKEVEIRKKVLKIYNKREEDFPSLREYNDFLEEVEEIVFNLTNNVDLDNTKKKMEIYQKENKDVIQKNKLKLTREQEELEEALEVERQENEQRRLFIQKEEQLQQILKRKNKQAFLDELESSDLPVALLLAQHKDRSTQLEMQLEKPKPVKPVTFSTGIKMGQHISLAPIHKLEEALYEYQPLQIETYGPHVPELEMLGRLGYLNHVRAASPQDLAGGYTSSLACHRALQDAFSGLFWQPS
Chain of kinases in BCWM.1 cells (Homo sapiens, UniProt P54762) (P54762 18-984 limits assumed): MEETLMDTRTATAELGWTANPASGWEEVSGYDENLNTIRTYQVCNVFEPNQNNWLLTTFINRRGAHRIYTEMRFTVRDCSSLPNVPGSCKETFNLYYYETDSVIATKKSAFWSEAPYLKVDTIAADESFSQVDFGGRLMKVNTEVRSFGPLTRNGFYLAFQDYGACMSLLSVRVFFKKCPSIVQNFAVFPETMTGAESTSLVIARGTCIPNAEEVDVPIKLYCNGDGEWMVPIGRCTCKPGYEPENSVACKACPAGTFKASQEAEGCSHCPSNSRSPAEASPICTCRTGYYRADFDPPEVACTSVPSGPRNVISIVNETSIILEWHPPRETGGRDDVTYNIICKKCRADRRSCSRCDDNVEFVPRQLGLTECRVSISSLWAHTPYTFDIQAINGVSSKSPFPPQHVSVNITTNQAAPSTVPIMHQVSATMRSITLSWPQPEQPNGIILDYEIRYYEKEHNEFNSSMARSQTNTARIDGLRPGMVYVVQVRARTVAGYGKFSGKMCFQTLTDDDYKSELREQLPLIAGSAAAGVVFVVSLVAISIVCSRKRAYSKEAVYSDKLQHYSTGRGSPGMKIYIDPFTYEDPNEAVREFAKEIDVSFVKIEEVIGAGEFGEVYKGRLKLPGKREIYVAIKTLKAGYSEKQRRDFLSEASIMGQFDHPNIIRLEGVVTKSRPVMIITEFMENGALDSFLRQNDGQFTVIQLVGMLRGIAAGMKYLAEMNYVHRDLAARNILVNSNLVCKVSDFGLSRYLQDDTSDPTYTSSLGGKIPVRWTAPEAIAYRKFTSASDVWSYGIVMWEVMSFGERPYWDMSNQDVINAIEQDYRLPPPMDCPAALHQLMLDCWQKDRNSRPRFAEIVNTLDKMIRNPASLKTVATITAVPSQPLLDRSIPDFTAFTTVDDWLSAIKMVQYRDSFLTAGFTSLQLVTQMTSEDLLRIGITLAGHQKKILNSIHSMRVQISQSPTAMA
Chain of NDR1 (Q15208 whole entry): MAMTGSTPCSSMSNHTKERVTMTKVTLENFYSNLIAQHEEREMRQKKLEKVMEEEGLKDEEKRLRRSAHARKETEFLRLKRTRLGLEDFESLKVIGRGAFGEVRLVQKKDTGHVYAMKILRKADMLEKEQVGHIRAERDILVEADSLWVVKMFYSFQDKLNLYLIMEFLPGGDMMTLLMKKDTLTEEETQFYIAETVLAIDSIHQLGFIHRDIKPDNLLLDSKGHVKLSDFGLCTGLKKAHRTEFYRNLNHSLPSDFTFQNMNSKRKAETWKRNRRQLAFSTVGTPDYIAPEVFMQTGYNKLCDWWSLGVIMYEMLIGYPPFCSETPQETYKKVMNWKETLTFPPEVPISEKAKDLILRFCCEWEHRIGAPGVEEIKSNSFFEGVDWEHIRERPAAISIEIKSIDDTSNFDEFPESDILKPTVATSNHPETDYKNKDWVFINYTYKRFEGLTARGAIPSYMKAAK
Chain of IKKb (O14920 whole entry): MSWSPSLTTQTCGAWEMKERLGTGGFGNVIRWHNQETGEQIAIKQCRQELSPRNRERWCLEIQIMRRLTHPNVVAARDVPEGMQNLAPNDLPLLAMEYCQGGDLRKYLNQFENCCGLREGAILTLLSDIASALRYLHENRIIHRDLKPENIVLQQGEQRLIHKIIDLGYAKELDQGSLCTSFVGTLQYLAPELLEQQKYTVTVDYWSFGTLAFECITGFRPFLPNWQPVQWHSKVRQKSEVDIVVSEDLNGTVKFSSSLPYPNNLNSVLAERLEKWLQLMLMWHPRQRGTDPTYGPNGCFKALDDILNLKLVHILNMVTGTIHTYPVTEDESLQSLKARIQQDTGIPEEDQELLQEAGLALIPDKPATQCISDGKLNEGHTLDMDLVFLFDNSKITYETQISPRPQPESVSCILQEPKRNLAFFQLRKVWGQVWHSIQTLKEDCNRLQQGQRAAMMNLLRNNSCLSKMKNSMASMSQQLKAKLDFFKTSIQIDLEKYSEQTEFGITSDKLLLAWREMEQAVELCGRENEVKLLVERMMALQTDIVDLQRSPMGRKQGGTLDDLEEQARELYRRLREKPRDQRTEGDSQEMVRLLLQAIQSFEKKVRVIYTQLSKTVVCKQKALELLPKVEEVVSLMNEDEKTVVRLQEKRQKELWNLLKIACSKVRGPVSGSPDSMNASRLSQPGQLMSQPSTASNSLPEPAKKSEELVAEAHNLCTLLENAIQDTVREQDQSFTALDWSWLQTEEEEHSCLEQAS

Compound: CCC(=O)N1CC[C@H](Nc2nccc(Nc3ncc(C(=O)Nc4c(C)cccc4C)s3)n2)C1 [Example I-9]
- % change of MS signal compared to control sample (kinases in BCWM.1 cells [1]): −5.4% and −2.1%
- % change of MS signal compared to control sample (kinases in BCWM.1 cells [2]): 26.2% and 15.2%
- % change of MS signal compared to control sample (kinases in BCWM.1 cells [3]): 33.8%
- % change of MS signal compared to control sample (kinases in BCWM.1 cells [4]): −9.2%
- % change of MS signal compared to control sample (kinases in BCWM.1 cells [5]): 17.6%
- % change of MS signal compared to control sample (kinases in BCWM.1 cells [6]): −1.8%
- % change of MS signal compared to control sample (kinases in BCWM.1 cells [7]): −4.5%

Compound: C=CC(=O)N1CCC(Cn2ccc(Nc3ncc(C(=O)Nc4c(C)cccc4Cl)s3)n2)C1 (centres unmarked) [II-1]
- % change of MS signal compared to control sample (SLK): 0.0% and −3.6%
- IC50 (BTK): 1.1 nM

Compound: C=CC(=O)N1CCC(CNc2nccc(Nc3ncc(C(=O)Nc4c(C)cccc4C)s3)n2)C1 (racemic) [Example I-8]
- % change of MS signal compared to control sample (NDR1): −0.8% and 2.2%

Compound: C=CC(=O)N1CC[C@@H](Nc2nccc(Nc3ncc(C(=O)Nc4c(C)cccc4C)s3)n2)C1 [Example I-4]
- % change of MS signal compared to control sample (IKKb): 3.1% and 4.4%
- % change of MS signal compared to control sample (DNAPK): −80.8%
- % change of MS signal compared to control sample (JAK3 domain2): −30.8%
- % change of MS signal compared to control sample (CDK7): 21.6% and 16.8%

Compound: C=CC(=O)N1CC[C@H](Nc2nccc(Nc3ncc(C(=O)Nc4c(C)cccc4C)s3)n2)C1 [Example I-3]
- % change of MS signal compared to control sample (kinases in BCWM.1 cells [8]): −3.7% and −4.5%
- % change of MS signal compared to control sample (kinases in BCWM.1 cells [9]): 92.9% and 95.7%
- % change of MS signal compared to control sample (kinases in BCWM.1 cells [10]): −2% and −3.8%
- % change of MS signal compared to control sample (kinases in BCWM.1 cells [11]): 12.4% and 3.6%
- % change of MS signal compared to control sample (kinases in BCWM.1 cells [12]): −11.3% and −5.5%
- % change of MS signal compared to control sample (kinases in BCWM.1 cells [13]): 3.5% and 9%
- % change of MS signal compared to control sample (kinases in BCWM.1 cells [14]): 9.7% and 5.6%
- % change of MS signal compared to control sample (kinases in BCWM.1 cells [15]): 20% and 17%
- % change of MS signal compared to control sample (kinases in BCWM.1 cells [16]): −2.8% and −9%
- % change of MS signal compared to control sample (kinases in BCWM.1 cells [17]): 92.6% and 92.7%
- % change of MS signal compared to control sample (kinases in BCWM.1 cells [18]; ATP Loop): 5.3% and 6%
- % change of MS signal compared to control sample (kinases in BCWM.1 cells [18]; Lys1): 16.4% and 9.8%
- % change of MS signal compared to control sample (kinases in BCWM.1 cells [19]): 92.4% and 95.8%
- % change of MS signal compared to control sample (kinases in BCWM.1 cells [20]): −2.1% and 1.7%
- % change of MS signal compared to control sample (kinases in BCWM.1 cells [21]): 3.6% and 1.2%
- % change of MS signal compared to control sample (kinases in BCWM.1 cells [22]): 12.7%

Compound: C=CC(=O)N1CCCCC(Nc2nccc(Nc3ncc(C(=O)Nc4c(C)cccc4C)s3)n2)C1 (centres unmarked) [Example I-7]
- % change of MS signal compared to control sample (p38a): 69.8% and 51.2%
- % change of MS signal compared to control sample (MAP2K1, MAP2K2): 7.4%
